According to ChEMBL document CHEMBL1157539, “Thousands of chemical starting points for antimalarial lead identification” (Nature, 2010):
Counter-ions that a name gives are not always drawn.

Each molecule was assayed on Plasmodium falciparum (assay: GSK_TCMDC: Inhibition of Plasmodium falciparum 3D7 in whole erythrocytes, using parasite LDH activity as an index of growth.). Conditions: not given.
Assay type: functional, organism-based
`O=C(/C=C/c1cccc(F)c1)NC1CCC(CN2CCC(c3c[nH]c4ccccc34)CC2)CC1` (configuration not stated) was tested, and the XC50 was 866 nM. Molecule `CCOc1ccc2nccc([C@@H](O)[C@@H]3C[C@@H]4CCN3C[C@@H]4CC)c2c1` [ETHYLHYDROCUPREINE HYDROCHLORIDE] has an XC50 of 112 nM.

Same assay, conditions: Plasmodium falciparum, 3D7
In the case of `CC(C)CNC(=S)N1CCCN(c2nc3ccc(Cl)cc3s2)CC1`, the XC50 is reported as 960 nM. `Clc1ccc2c(NCCc3ccccc3)ccnc2c1` showed an XC50 of 488 nM. In the case of `Cc1ccc(O)cc1Nc1ccnc2cc(-c3csc(CNCCN4CCOCC4)n3)ccc12`, the XC50 is reported as 884 nM. `O=C(NCC1COc2ccccc2O1)c1cnc2c(c1)nc(-c1c[nH]c(-c3ccccc3)n1)n2CCSCc1c(F)cccc1Cl` (configuration not stated) was tested, and the XC50 was 959 nM. `CCNc1cc(C(=O)N[C@@H](Cc2ccccc2)[C@H](O)CN[C@@H]2CCc3ccccc32)cc(N2CCCCS2(=O)=O)c1` was tested, and the XC50 was 555 nM. `Cc1cc(N2CC=CCC2)nc(NC(=N)Nc2ccc(Cl)cc2)n1` showed an XC50 of 782 nM. For `O=C(Nc1cccc(C(F)(F)F)c1)NC1CCN(c2ccnc3ccccc23)C1` (configuration not stated), the XC50 was 289 nM. `c1ccc(-c2nc(NCCCn3ccnc3)cc(-c3ccncc3)n2)cc1` gave an XC50 of 167 nM. Work on `Cc1cnc(C(=O)Nc2cccc(-c3cccc(-c4nc5cc(F)ccc5[nH]4)c3)c2)cn1` yielded an XC50 of 771 nM. `CN(C)c1cccc2c1nc(-c1ccco1)n2CCNCc1ccccc1` gave an XC50 of 814 nM. Work on `OC(CNC1CCCCC1)Cn1c2ccc(Br)cc2c2cc(Br)ccc21` (configuration not stated) yielded an XC50 of 303 nM. In the case of `COc1ccc(CC(=O)Nc2ccc(Nc3nc(C)cc(N(C)C)n3)cc2)cc1`, the XC50 is reported as 790 nM. `CCCc1cn2c3c(cc(C(=O)N[C@@H](Cc4ccccc4)[C@H](O)CNC4CCOCC4)cc13)N(C)S(=O)(=O)CC2` showed an XC50 of 47.7 nM. `COc1ccc(Nc2nccc(NCC(O)c3ccc(C(F)(F)F)cc3)n2)cc1` (configuration not stated) was tested, and the XC50 was 545 nM. Molecule `O=C(/C=C/c1ccc(C(F)(F)F)cc1)NCCCCCN1CCN(C(=O)Nc2ccc(F)c(Cl)c2)CC1` has an XC50 of 1210 nM. `CC(C)Cc1cn(-c2nc(-c3nc4ccccc4[nH]3)cs2)c2ccncc12` was tested, and the XC50 was 90 nM. `COc1ccc2nc(N3CCN(C(=O)OC(C)(C)C)CC3)nc(NCCCc3ccccc3)c2c1` showed an XC50 of 687 nM. Work on `CCOC(=O)c1ccc(NC(=O)Nc2cccc(-c3cccc(-c4nc5ccccc5[nH]4)c3)c2)cc1` yielded an XC50 of 68.7 nM. Molecule `Cc1[nH]c(C)c(-c2ccc(OCCOc3ccc(C(F)(F)F)cn3)cc2)c(=O)c1Br` has an XC50 of 138 nM. Molecule `CC(C)(CNC(=O)/C=C/c1ccc(Cl)c(Cl)c1)CNc1cc(=O)c2ccccc2[nH]1` has an XC50 of 856 nM. `CNc1ccc(CNCc2cccc(-c3ccc(-c4nc5cccc(C)c5[nH]4)cc3)c2)cc1` was tested, and the XC50 was 660 nM. `CN1CCC(NCc2cccc(-c3ccc(S(=O)(=O)NCCc4ccccn4)cc3)c2)CC1` gave an XC50 of 827 nM. `CCCCc1cc(O)c2c(c1)OC(C)(C)C=C2C1=CCN(Cc2ccccc2)CC1` gave an XC50 of 247 nM. Molecule `N#Cc1cccc(Nc2nccc(NCC(O)c3ccc(C(F)(F)F)cc3)n2)c1` (configuration not stated) has an XC50 of 556 nM. `COCCNCc1cccc(-c2cccc(CNC3CCN(Cc4ccccc4)CC3)c2)c1` gave an XC50 of 283 nM. In the case of `CC1(C)NC(N)=NC(=N)N1OCOc1cc(Cl)c(Cl)cc1Cl`, the XC50 is reported as 3.2 nM. In the case of `CCn1cnc2c(N3CCCCS3(=O)=O)cc(C(=O)N[C@@H](Cc3ccccc3)[C@H](O)CNC3CCOCC3)cc21`, the XC50 is reported as 712 nM. `O=[N+]([O-])c1cccc(CNCC2CCN(CC3CCCCC3)CC2)c1` showed an XC50 of 1290 nM. Molecule `Cc1[nH]c2ccccc2c1C1=CCN(CCCCC23CCCc4cccc(c42)NC3=O)CC1` (configuration not stated) has an XC50 of 231 nM. `CC(Cc1ccc(NC(=O)COc2ccc(CC(C)NCCc3cccc(Cl)c3)cc2)cc1)NCCc1cccc(Cl)c1` (configuration not stated) showed an XC50 of 84.3 nM. Work on `O=C(/C=C/c1cccc(F)c1)NC1CCC(CN2CCC(c3c[nH]c4ccccc34)CC2)CC1` (configuration not stated) yielded an XC50 of 713 nM. For `O=C(CN1CCCCC1)Nc1ccc(Nc2nccc(NCC(O)c3ccccc3)n2)cc1` (configuration not stated), the XC50 was 583 nM. `O=C(Cc1cccc2ccccc12)NC1CCN(c2ccnc3cc(Cl)ccc23)C1` (configuration not stated) showed an XC50 of 248 nM. `O=C(CCc1ccco1)NC1CCN(CC2(c3ccc(Cl)cc3)CCC2)CC1` gave an XC50 of 1450 nM. `CN(CC(=O)N1CCN(S(=O)(=O)c2cccc(Cl)c2)CC1CN1CCCC1)c1ccc(Cl)c(Cl)c1` (configuration not stated) was tested, and the XC50 was 1240 nM. `CN(Cc1cccc(O)c1)C1CCN(c2cc(NC(=O)c3ccc(F)cc3)ccn2)C1` (configuration not stated) was tested, and the XC50 was 1150 nM. For `Clc1ccc(CNCCCCCCNCc2ccc(Cl)cc2)cc1`, the XC50 was 845 nM. `COc1ccc(CNCCc2cccs2)cc1-c1ccc(OC)c(S(=O)(=O)NCCN2CCCC2)c1` showed an XC50 of 1410 nM. Work on `COc1ccc(F)cc1-c1ccccc1CNC(=O)CN(C)S(=O)(=O)c1cc(C)cc(Cl)c1C` yielded an XC50 of 665 nM. `Cc1ccc(-n2nc(-c3ccccc3)c3cc(C(=O)NCCN)sc32)cc1` gave an XC50 of 1370 nM. `COc1ccc(Nc2nc(N3CCCC3)c3ccccc3n2)cc1` showed an XC50 of 750 nM. `O=C(Cc1cccnc1)N(Cc1ccc(-c2ccc(CNCc3cccnc3)cn2)cc1)C1CCN(Cc2ccccc2)CC1` was tested, and the XC50 was 803 nM. Work on `Nc1c2c(nc3cc(NC(=O)c4ccc([N+](=O)[O-])cc4)ccc13)CCCC2` yielded an XC50 of 475 nM. `O=C(/C=C/c1ccc(Cl)c(Cl)c1)NCCCCCN1CCC(NC(=O)Nc2ccc(OC(F)F)cc2)CC1` was tested, and the XC50 was 754 nM. `COc1c(OC)c(OC)c2ccccc2c1CCNCCCCNCCc1c(OC)c(OC)c(OC)c2ccccc12` gave an XC50 of 612 nM. `CCCN(CCC)CCCNc1ccc(C(=O)Nc2ccc(OCC)cc2)cc1[N+](=O)[O-]` showed an XC50 of 992 nM. Work on `O=S(=O)(c1ccc(Cl)cc1Cl)N1CCCCC(c2ccc(C(F)(F)F)cc2)=N1` yielded an XC50 of 160 nM. `Cc1cc2nc(-c3ccc(C(=O)NCc4ccc(C(C)(C)C)cc4)cc3)[nH]c2cc1C` showed an XC50 of 772 nM. `CCN(C)C(=O)n1ncc2c3c(N)nc(N)nc3ccc21` was tested, and the XC50 was 176 nM. In the case of `CO/C(=C\C=C\c1cc2cc(Cl)c(Cl)cc2[nH]1)C(=O)NCCCNC12CC3CC(CC(C3)C1)C2`, the XC50 is reported as 730 nM. With `O=C(Cn1c(CCc2cccc(F)c2F)cc(=O)c2cccnc21)N(CCN1CCCC1)Cc1ccc(-c2ccc(C(F)(F)F)cc2)cc1` the XC50 was 890 nM. `Cc1cc2ccc(CNCCc3ccccc3Br)cc2nc1N` was tested, and the XC50 was 514 nM. `Cc1cccc(Nc2nc(N)c3ccccc3n2)c1` was tested, and the XC50 was 574 nM. `CN1CCN(CCCN(Cc2csc(-c3ccc(CNCc4ccccc4)cc3)n2)S(=O)(=O)c2ccccc2)CC1` gave an XC50 of 773 nM. `O=C(NC1CCC(CN2CCC(c3c[nH]c4ccccc34)CC2)CC1)c1cc2ccccc2o1` (configuration not stated) showed an XC50 of 971 nM. Molecule `CCN(CC)c1ccc(C(c2ccc(N(CC)CC)cc2)c2ccc([N+](=O)[O-])cc2)cc1` has an XC50 of 946 nM. For `COc1cc(NCC(O)CNc2cc(OC)c3ccccc3n2)nc2ccccc12`, the XC50 was 109 nM. With `c1ccc2c(CNc3nc(NCC4CCCCC4)nc4[nH]cnc34)cccc2c1` the XC50 was 888 nM. Molecule `Cc1cc(NC(=O)Nc2cccc(N(C)C)c2)c2ccccc2n1` has an XC50 of 201 nM. For `COc1cccc2c(N/N=C/c3ccccc3[N+](=O)[O-])ccnc12`, the XC50 was 588 nM. Work on `N#Cc1cccc(C(O)C2CN(CCC3CCCCC3)CCC2(O)c2ccccc2)c1` (configuration not stated) yielded an XC50 of 129 nM. In the case of `Cc1c(S(=O)(=O)Nc2ccc3nccc(N4CCN[C@H](C)C4)c3c2)sc2ccc(Cl)cc12`, the XC50 is reported as 842 nM. With `O=C(Nc1cccc(-c2csc(-c3nc4ccccc4[nH]3)c2)c1)c1ccncc1` the XC50 was 256 nM. Work on `COc1ccc(-c2cnc3ccc(NCc4ccc(S(N)(=O)=O)cc4)nn23)cc1` yielded an XC50 of 796 nM. In the case of `CCc1c(CCNCCCCCCNCCc2ccc(OC)c(OC)c2C)ccc(OC)c1OC`, the XC50 is reported as 1570 nM. In the case of `CCCCCC(C)N/C(=N/c1cccc(Cl)c1Cl)Nc1ccc(C#N)cc1O` (configuration not stated), the XC50 is reported as 805 nM. With `Cc1c(S(=O)(=O)Nc2ccc3ccn(CCN(C)C)c3c2)sc2ccc(Cl)cc12` the XC50 was 921 nM. Work on `CC1(C)C=C(c2ccncc2)c2cc(Cl)ccc2O1` yielded an XC50 of 430 nM. `c1cncc(CCNCc2cccc(-c3csc(-c4nc5ccccc5[nH]4)c3)c2)c1` gave an XC50 of 704 nM. Work on `CC(Cc1ccc(Cl)cc1)Nc1nc(NC2CCCC2)nc(N2CCC(C#N)(c3ccccc3)CC2)n1` (configuration not stated) yielded an XC50 of 715 nM. Work on `CN(c1ccc2c(c1)nc(Nc1cc(C(C)(C)C)on1)n2C)c1ccnc(Nc2ccc(CS(C)(=O)=O)cc2)n1` yielded an XC50 of 900 nM. With `CCN(CC)CCN(Cc1ccc(-c2ccc(C(F)(F)F)cc2)cc1)C(=O)Cn1c(CCc2cccc(F)c2F)cc(=O)c(C)c1C` the XC50 was 624 nM. Work on `O=C(/C=C/c1ccc(Cl)c(Cl)c1)NCCCCCCN1CCCN(C(=O)Nc2ccc(C(F)(F)F)cc2)CC1` yielded an XC50 of 579 nM. Work on `Cc1ccc(S(=O)(=O)NC2=NC(=N)N(OCc3ccc(Cl)c(Cl)c3)C(C)(C)N2)cc1` yielded an XC50 of 1140 nM. `CN1CCN(CCCN(Cc2csc(-c3ccc(CNCc4ccccc4)cc3)n2)C(=O)c2cc(F)cc(F)c2)CC1` was tested, and the XC50 was 708 nM. For `COc1cc(C(=O)Nc2cccc(-c3cn4ccc(C)cc4n3)c2)cc(OC)c1OC`, the XC50 was 761 nM. `NC(=O)c1ccc(NCC(=O)Nc2cccc(-c3cccc(-c4nc5cc(C(F)(F)F)ccc5[nH]4)c3)c2)cc1` showed an XC50 of 270 nM. `O=C(Nc1ccc(Cl)c(Cl)c1)Nc1ccccc1N1CCNCC1` was tested, and the XC50 was 709 nM. For `CCOc1cc(C=Cc2nc(O)c3ccccc3n2)cc(Cl)c1O`, the XC50 was 1180 nM. With `O=C(NCC1CCCCC1)c1cc(=O)c2ccccc2o1` the XC50 was 320 nM. `N=C(N)c1ccc(C(=O)Nc2cccc(C(=N)N)c2)cc1` gave an XC50 of 1040 nM. In the case of `CCOc1cc(C)ccc1N(C1CCN(CCCCNC(=O)c2ccc(-c3ccc(C(F)(F)F)cc3)cc2)CC1)S(=O)(=O)c1ccccc1`, the XC50 is reported as 1020 nM. In the case of `COC(=O)C1(NC(=O)c2ccc(-n3nc(C)c(-c4ccccc4)c3N)cc2)CCCC1`, the XC50 is reported as 370 nM. `COc1ccccc1CCNC(=O)c1cc(Br)cc(N2CCN(c3ccncc3)CC2)c1` showed an XC50 of 1270 nM. `Cc1ccccc1C1CCN(c2ccc(C(=O)Nc3ccccc3)cn2)CC1` gave an XC50 of 327 nM. `CCc1ccccc1N1CCN(CCCC(=O)c2ccc(NC(=O)c3ccc(Cl)cc3)cc2)CC1` showed an XC50 of 1310 nM. For `CN(C)c1ccc(CN2CCC(NC(=O)c3ccc(-c4cccc(F)c4)s3)CC2)cc1`, the XC50 was 1490 nM. `CCN1CCN(c2cc(C)c3cc(NC(=O)C=Cc4cccc(OC)c4OC)ccc3n2)CC1` gave an XC50 of 697 nM. Molecule `CCOC(=O)c1ccc(NC(=O)Nc2ccc(-c3cccc(-c4nc5ccccc5[nH]4)c3)cc2)cc1` has an XC50 of 145 nM. Molecule `O=C(Nc1cccc(C(F)(F)F)c1)c1cccc2nc(C(F)(F)F)[nH]c12` has an XC50 of 644 nM. In the case of `Cc1cccc2nc(-c3cccc(-c4cccc(NC(=O)CNc5ccc(C(N)=O)cc5)c4)c3)[nH]c12`, the XC50 is reported as 282 nM. `O=C(/C=C/c1ccc(Cl)cc1)NCCCCCN1CCCN(C(=O)Nc2ccc(Cl)c(C(F)(F)F)c2)CC1` showed an XC50 of 910 nM. `Cn1cnc(CCNC(=O)c2ccc(-c3cccc(-c4nc5cc(F)ccc5[nH]4)c3)cc2)c1` showed an XC50 of 680 nM. `CC(C)(C)c1ccc2[nH]c(-c3ccc(C(=O)NCc4cccc(C(F)(F)F)c4)cc3)nc2c1` showed an XC50 of 733 nM. In the case of `Cc1nnc2c(NC(=O)NC3CCCC3)cc3ccc(-c4cccc(CN5CCN(C)CC5)c4)cc3n12`, the XC50 is reported as 917 nM.
